Consider two compounds from article PMC11724075, “Small-molecule-induced ERBB4 activation to treat heart failure” (Nature Communications, 2025).

Values joined by “and” are separate entries in the source; they are usually repeats but may differ in a detail not shown here. Equal entries are not always repeated.

One test concerns iAMs. Nature of the test: TUNEL assay in H2O2-treated iAMs. On the set-up: In vitro TUNEL assay: unit not given here. In kind it is cell-based, rat. On the procedure:
To assess apoptosis, a TUNEL assay was performed using the In Situ Cell Death Detection Kit, Fluorescein (Merck, 11684795910) according to the manufacturer’s instructions. After the 4-h incubation, the cells were fixed with 4% paraformaldehyde for 15 min at room temperature, followed by permeabilization with 0.1% Triton X-100 in 0.1% sodium citrate for 2 min on ice. Cells were then incubated with the TUNEL reaction mixture in a humidified chamber at 37 °C for 1 h in the dark. After washing with PBS, the samples were analyzed using fluorescence microscopy to detect apoptotic cells. […]
1 on TUNEL staining (red).
positive cells (n=7 biological replicates in Veh group, n=9 biological replicates for H2O2/Veh group, n=11 […]

The subject of another test is Erbb4-null mice. Nature of the test: AngII-treated Erbb4-null mice, echocardiography. In kind it is in vivo, mouse. Conditions: AngII/EF-1. From the text:
Floxed Erbb4 mice (Erbb4^f/f; C57BL/6N; 129-Erbb4tm1Fej/Mmucd, MMRRC, #010439-UCD) were crossed with CAGGCre-ER^TM mice (Jackson Laboratory, 004682) containing the Tg(CAG-cre/Esr1*)5Amc transgene that expresses Cre recombinase under the control of a chicken beta actin promoter/enhancer coupled to the human cytomegalovirus immediate-early gene enhancer, resulting in expression of tamoxifen-inducible Cre-ERT in most cell types. To induce Cre recombinase-mediated deletion of Erbb4, eleven-week-old female and male iCAGGCre-ER^TM/Erbb4^f/f mice were intraperitoneally injected with tamoxifen (Merck, T5648; 10 mg/kg; in corn oil) daily for 5 consecutive days.
Echocardiography was performed using the Vevo F2-LAZRX (FUJIFILM VisualSonics) and UHF57x probe. Mice were anesthetized with 1.5% isoflurane (Alvira, BE-V512222). Parasternal long-axis B-mode images and M-mode images were obtained and analyzed using VevoLAB software (FUJIFILM VisualSonics, Version 5.7.1). For the AngII experiments, measurements were obtained through analysis of the short-axis M-mode. For the MI experiments, measurements were obtained through analysis of the parasternal long-axis B-mode, of which the area and end-volume of the left ventricular cavity in diastole and systole were determined by tracing the endocardial border. Acquisitions, measurements and analyses were performed blinded.
Supplementary Table 2. Echocardiographic parameters. Echocardiographic parameters obtained through the analysis of the M-mode short-axis views. (a) Male and (b) female wild-type mice treated […]
mice in EF-1 group). (c) Male wild-type mice treated with AngII and NA-1 (n=5 male mice in Ctrl and AngII/Veh group, n=4 male mice in AngII/NA -1 group). (d) Comparison between wild-type and Erbb4-null mice (n=10 male and female wild -type mice and n=6 male and female Erbb4-null mice). (e) Male […]
Echocardiographic parameters were measured weekly
(indicated by ‘T’). All data are presented as mean (value of individual mice) ± SD, two-tailed unpaired […]
1 groups. Source data are provided as a Source Data file. AngII, angiotensin II; ANOVA, analysis of variance; Ctrl, control; DOX, doxorubicin; EF, ejection fraction; ERBB4, erythroblastic leukemia viral oncogene homolog 4; FS, fractional shortening; IVSd, interventricular septum thickness in diastole; IVSs, interventricular septum thickness in systole; LVIDd, left ventricular internal diameter in diastole; LVIDs, left ventricular internal diameter in systole; LVPWd, left ventricular posterior wall thickness in diastole; LVPWs, left ventricular posterior wall thickness in systole; MI, myocardial infarction; NA, non-activating pharmacophore-containing compound; SD, standard variation; Veh, vehicle.

Another test concerns the target T1, ERBB2/ERBB3 (Homo sapiens, UniProt P21860).
T1 construct: host or cells: U2OS (osteosarcoma cells), PathHunter engineered line
In words: PathHunter U2OS ERBB2/ERBB3 dimerization assay. As to conditions: for ERBB3/ERBB2 dimerization signal: relative to signal with 0.1 µM NRG1, single biological replicates. In kind it is cell-based. On the procedure:
PathHunter U2OS ERBB4/ERBB4 (osteosarcoma cells; Eurofins, 93-0961C3), U2OS ERBB2/ERBB4 (osteosarcoma cells; Eurofins, 493-0960C3), ERBB2/ERBB3 (osteosarcoma cells; Eurofins, 93-1042C3) and ERBB1/ERBB1 (osteosarcoma cells; Eurofins, 93-0989C3) dimerization cell lines were cultured according to the manufacturer’s instructions. Briefly, cells were cultured in Cell Culture Reagent 103 (Eurofins, 92-3103 G) supplemented with 250 µg/mL Hygromycin B (Eurofins, 92-0029) and 500 µg/mL G418 (Eurofins, 92-0030), and were maintained at 37 °C in humidified atmosphere of 5% CO2. HCFs (Innoprot, P10454) were cultured in fibroblast medium (Innoprot, P60108) supplemented with 10% (v/v) fetal bovine serum (FBS, Innoprot), 10% (v/v) fibroblast growth supplement (Innoprot), and 1% (v/v) penicillin/streptomycin solution (Innoprot). iAMs[33] (kindly provided by LUMC) were cultured in Advanced DMEM F-12 (Thermo Fisher Scientific, 12634028) supplemented with 2% (v/v) heat-inactivated FBS (Thermo Fisher Scientific, 10270106), 1% (v/v) penicillin/streptomycin (10,000 units/mL and 10 mg/mL respectively, Thermo Fisher Scientific, 15140122), 1× GlutaMAX (Thermo Fisher Scientific, 35050061), and 100 ng/mL doxycycline (Tocris, 4090) for proliferation. To induce differentiation, iAMs were transferred to medium without doxycycline.
U2OS ERBB4/ERBB4 dimerization cells were seeded at a density of 5 × 10^4 cells/well in 100 µL Cell Plating 0 Reagent, in white 96-well plates (PerkinElmer, 6005680) and incubated for 24 h at 37 °C, 5% CO2. […] Next, 110 µL PathHunter Flash Detection Reagent was added to each well and incubated at RT for 1 h after which the luminescence signal was measured using the Luminoskan Ascent (Thermo Fisher Scientific). […] The same experimental set-up was used for the U2OS ERBB2/ERBB4, U2OS ERBB2/ERBB3 and U2OS ERBB1/ERBB1 dimerization cell lines.

The subject of test [1] is Akt phosphorylation (pAkt/Akt). On the set-up: method as in PMID 14654373. As to conditions: cited from earlier work.
The mark [2] stands for this setting: Male and female Erbb4-null mice.
[3] abbreviates: male and female Erbb4-null mice, mean ± SD.

T1 sequence (P21860 20-1342): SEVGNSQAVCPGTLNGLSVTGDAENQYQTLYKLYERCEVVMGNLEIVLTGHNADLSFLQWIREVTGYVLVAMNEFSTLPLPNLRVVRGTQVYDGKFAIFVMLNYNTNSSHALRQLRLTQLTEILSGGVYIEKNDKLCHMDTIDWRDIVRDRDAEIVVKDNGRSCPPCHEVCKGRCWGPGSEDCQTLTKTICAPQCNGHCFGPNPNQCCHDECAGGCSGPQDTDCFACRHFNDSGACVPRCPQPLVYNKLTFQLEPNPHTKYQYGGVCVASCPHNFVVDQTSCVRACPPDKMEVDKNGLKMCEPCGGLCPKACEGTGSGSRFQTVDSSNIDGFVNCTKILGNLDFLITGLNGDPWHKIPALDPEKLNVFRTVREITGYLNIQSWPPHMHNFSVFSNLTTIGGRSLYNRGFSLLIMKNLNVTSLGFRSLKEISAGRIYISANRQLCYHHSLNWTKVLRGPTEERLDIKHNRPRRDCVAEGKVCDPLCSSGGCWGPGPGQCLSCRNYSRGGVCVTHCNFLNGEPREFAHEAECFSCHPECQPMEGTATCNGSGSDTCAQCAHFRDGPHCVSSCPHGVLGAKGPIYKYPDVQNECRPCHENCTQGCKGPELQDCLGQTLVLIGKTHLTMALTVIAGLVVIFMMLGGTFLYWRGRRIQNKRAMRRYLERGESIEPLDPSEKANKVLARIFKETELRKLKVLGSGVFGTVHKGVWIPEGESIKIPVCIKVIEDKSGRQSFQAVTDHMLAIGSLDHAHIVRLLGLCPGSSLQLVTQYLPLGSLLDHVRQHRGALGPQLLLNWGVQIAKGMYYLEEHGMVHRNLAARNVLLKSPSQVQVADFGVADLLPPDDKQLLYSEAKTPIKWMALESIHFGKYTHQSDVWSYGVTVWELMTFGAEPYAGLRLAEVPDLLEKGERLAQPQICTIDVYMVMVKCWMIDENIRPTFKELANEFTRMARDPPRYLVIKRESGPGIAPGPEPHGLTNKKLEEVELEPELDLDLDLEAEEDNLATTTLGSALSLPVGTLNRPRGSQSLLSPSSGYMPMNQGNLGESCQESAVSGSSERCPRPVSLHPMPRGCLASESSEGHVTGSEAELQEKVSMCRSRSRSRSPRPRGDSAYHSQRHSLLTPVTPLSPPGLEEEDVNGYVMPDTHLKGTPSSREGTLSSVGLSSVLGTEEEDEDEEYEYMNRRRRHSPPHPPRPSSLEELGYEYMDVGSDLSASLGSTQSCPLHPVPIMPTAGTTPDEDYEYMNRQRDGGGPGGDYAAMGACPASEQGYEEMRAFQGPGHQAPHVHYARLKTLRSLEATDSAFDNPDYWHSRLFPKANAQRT
T1 sequence (P04626 23-1255, further chain): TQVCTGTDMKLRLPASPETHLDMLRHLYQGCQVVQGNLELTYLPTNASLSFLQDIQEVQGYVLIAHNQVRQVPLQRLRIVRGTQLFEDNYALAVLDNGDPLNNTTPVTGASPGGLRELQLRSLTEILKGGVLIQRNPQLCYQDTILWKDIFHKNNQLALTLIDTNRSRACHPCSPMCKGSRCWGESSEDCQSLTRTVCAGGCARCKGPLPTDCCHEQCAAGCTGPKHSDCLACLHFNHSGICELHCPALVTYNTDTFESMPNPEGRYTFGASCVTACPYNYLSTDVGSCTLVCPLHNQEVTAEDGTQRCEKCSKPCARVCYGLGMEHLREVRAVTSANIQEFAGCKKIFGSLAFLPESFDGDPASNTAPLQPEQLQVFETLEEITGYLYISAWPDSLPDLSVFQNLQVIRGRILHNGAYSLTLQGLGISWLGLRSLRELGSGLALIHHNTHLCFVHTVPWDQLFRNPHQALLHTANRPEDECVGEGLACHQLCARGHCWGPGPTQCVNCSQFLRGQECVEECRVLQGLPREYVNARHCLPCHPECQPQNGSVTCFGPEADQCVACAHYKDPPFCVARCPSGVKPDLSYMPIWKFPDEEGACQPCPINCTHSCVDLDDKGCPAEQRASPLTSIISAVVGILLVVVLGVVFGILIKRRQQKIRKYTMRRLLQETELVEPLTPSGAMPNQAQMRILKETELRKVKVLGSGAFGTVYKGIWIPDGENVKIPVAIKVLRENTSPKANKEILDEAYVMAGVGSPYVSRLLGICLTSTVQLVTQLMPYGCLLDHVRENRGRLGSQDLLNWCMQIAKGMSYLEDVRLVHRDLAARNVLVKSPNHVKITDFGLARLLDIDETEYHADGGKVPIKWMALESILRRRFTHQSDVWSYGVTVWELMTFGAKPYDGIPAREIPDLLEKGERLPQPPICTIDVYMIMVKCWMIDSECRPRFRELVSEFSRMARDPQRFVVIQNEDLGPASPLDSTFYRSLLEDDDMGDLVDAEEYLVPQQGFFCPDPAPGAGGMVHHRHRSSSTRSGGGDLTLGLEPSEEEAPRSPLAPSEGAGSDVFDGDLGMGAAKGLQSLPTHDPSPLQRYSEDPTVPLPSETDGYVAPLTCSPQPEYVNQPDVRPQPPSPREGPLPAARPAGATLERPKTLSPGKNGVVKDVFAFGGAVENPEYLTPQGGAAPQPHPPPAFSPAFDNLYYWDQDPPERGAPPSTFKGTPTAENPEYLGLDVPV

On to `O=C(NC1CC1)C(Sc1nc2ccccc2c(=O)n1C1CCCC1)c1ccccc1` (stereo not drawn) [EF-1], for which the “number of TUNEL-positive (apoptotic) cells (in words)” value with iAMs (100 µM H2O2) is “significantly reduced this number”. In addition, the “In vitro TUNEL assay” value in the test with iAMs (H2O2/EF-1, individual replicates) was 23.25 and 37.594 and 36.981 and 17.145 and 24.708 and 40.03 and 14.87 and 23.901 and 20.679 and 24.2124 and 24.656. Moreover, the FS in the test on Erbb4-null mice (setting [2]) and in the test on Erbb4-null mice (setting [3]) was 5.8 ± 3.5% in each case. For the same compound, the IVSd with Erbb4-null mice (setting [2]) and in the test with Erbb4-null mice (setting [3]) was 1.0 ± 0.3 mm each time. Also, the IVSs in the test on Erbb4-null mice (setting [2]) and in the test with Erbb4-null mice (setting [3]) was 1.2 ± 0.5 mm in each case. For the same compound, the LVIDd with Erbb4-null mice (setting [2]) and in the test with Erbb4-null mice (setting [3]) was 5.8 ± 0.3 mm each time. Further, the LVIDs in the test on Erbb4-null mice (setting [2]) and with Erbb4-null mice (setting [3]) was 5.5 ± 0.5 mm in each case. In addition, the LVPWd with Erbb4-null mice (setting [2]) and with Erbb4-null mice (setting [3]) was 1.0 ± 0.4 mm in each case. Moreover, the LVPWs in the test with Erbb4-null mice (setting [2]) and in the test on Erbb4-null mice (setting [3]) was 1.1 ± 0.4 mm each time. The EC50 (usually the concentration giving half of the maximal effect) at ERBB2/ERBB3 was over 32 µM. Moreover, at ERBB2/ERBB3, the “stimulatory effect on ERBB2/ERBB3 heterodimerization (in words)” value is given as “lower compared to ERBB4 homodimerization”. In addition, the ERBB3/ERBB2 dimerization signal on ERBB2/ERBB3 (3.125e-8 M) is 0; at ERBB2/ERBB3 (6.25e-8 M), 4.35 and 0.16 and -2.68 and -0.63 and -0.56; on ERBB2/ERBB3 (1.25e-7 M), 2.37 and 0.16 and -2.68 and -1.68 and -1.97; on ERBB2/ERBB3 (2.5e-7 M), 0.62 and 4.11 and 0.43 and -3.27 and -3.43; at ERBB2/ERBB3 (5e-7 M), 0.97 and 1.82 and 6.28 and 0.82 and -2.96 and -1.11; at ERBB2/ERBB3 (1e-6 M), 0.96 and 9.29 and 2.03 and -1.53 and -0.18. Besides, the ERBB3/ERBB2 dimerization signal is 1.34 and 1.02 and 9.84 and 3.13 and 0.57 and 2.12 at ERBB2/ERBB3 (2e-6 M); 3.1 and 10.27 and 4.36 and 4.61 and 5.16 on ERBB2/ERBB3 (4e-6 M); 4.89 and 3.3 and 12.92 and 4.35 and 9.79 and 9.65 at ERBB2/ERBB3 (8e-6 M); 11.23 and 14.98 and 10.81 and 10.98 and 13.88 on ERBB2/ERBB3 (1.6e-5 M); 23.82 and 14.98 and 24 and 17.43 and 15.59 and 14.95 at ERBB2/ERBB3 (3.2e-5 M).

In the case of neuregulin-1 [NRG1], the “time of peak NRG1-induced Akt phosphorylation” value in test [1] is recorded as 15 min.
